Assay results: patent publication US20240148821A1, “PHARMACEUTICAL USE OF CYCLIC PEPTIDE COMPOUND” (CHUGAI SEIYAKU KABUSHIKI KAISHA, priority 2021, published 2024)
pIC50: −log10 of the molar value. Numbered stars: 1 amine (or outer) side, 2 acyl side, 3 side chain; on linkers, the order of the positions; unused ones are H or OH. Bridge positions count the residues as written; N and C are the ends. Square brackets hold non-standard residues; d marks the D form. Peptide text beside a SMILES is read from it. * marks the point of attachment. hPhe(3,5-F2-4-CF3) = N[C@@H](CCc1cc(F)c(C(F)(F)F)c(F)c1)C(=O)O; hPhe(3-Cl-4-CF3) = N[C@@H](CCc1ccc(C(F)(F)F)c(Cl)c1)C(=O)O; hPhe(3-F,4-CF3) = N[C@@H](CCc1ccc(C(F)(F)F)c(F)c1)C(=O)O; X20 = Cc1cncc(C[C@@H](C(=O)[*:2])N(C)[*:1])c1; NMePhe(4-Cl) = CN[C@@H](Cc1ccc(Cl)cc1)C(=O)O; NMePhe(3-Me) = CN[C@@H](Cc1cccc(C)c1)C(=O)O; NMePhe(4-Me) = CN[C@@H](Cc1ccc(C)cc1)C(=O)O; NMedβ3hAla = C[C@H](CC(=O)[*:2])N(C)[*:1]; NMeGly(cPent) = CN[C@H](C(=O)O)C1CCCC1; dβ3hPip = O=C(C[C@H]1CCCCN1[*:1])[*:2]; NMeCha = CN[C@@H](CC1CCCCC1)C(=O)O; NMeAhp(2) = CCCCC[C@H](NC)C(=O)O; NMeChg = CN[C@H](C(=O)O)C1CCCCC1; NMeF = CN[C@@H](Cc1ccccc1)C(=O)O; NMeI = CC[C@H](C)[C@H](NC)C(=O)O; NMeD = CN[C@@H](CC(=O)O)C(=O)O; NMeL = CN[C@@H](CC(C)C)C(=O)O; NMeV = CN[C@H](C(=O)O)C(C)C; d(β3hA) = C[C@@H](N)CC(=O)O; NMeA = CN[C@@H](C)C(=O)O; NMeAib = CNC(C)(C)C(=O)O; Piperidide = C1CCN(*)CC1; Pyrrolidide = C1CCN(*)C1; Ac5c = NC1(C(=O)O)CCCC1; Aze = O=C(O)[C@@H]1CCN1; Sar = CNCC(=O)O

Tests used:
[1] = target: protein-protein interaction between Kras and SOS1 (biotin-tagged human Kras loaded with GDP, His-tagged human SOS1) (Homo sapiens (Human), UniProt P01116, G12D); experiment: Protein-protein interaction inhibition between Kras and SOS1 (KrasG12D-SOS PPI) using AlphaScreen; assay type: biochemical; conditions: AlphaScreen; biotin-tagged human Kras loaded with GDP, His-tagged human SOS1; read-out: KRAS G12D-SOS PPI IC50;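 further: kras produced in E. coli, Ni-coupled donor beads and streptavidin acceptor beads, excitation 680 nm with emission detected at 520–620 nm via singlet oxygen transfer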
[2] = system: Human pancreatic cancer cell line AsPC-1 (G12D mutation Kras); experiment: AsPC-1 cell growth inhibition (AsPC-1 CGI); assay type: cell-based; conditions: read-out: AsPC-1 cell growth inhibition, 50% growth inhibitory concentration (IC50 value); 96 hours, CellTiter-Glo, values classified in ranges

SMILES | pIC50 [1] | pIC50 [2]
CC[C@H](C)[C@@H]1NC(=O)[C@H](CC(C)C)N(C)C(=O)C[C@@H](C(=O)N(C)C)N(C)C(=O)[C@H]([C@@H](C)CC)N(C)C(=O)C2(CCCC2)NC(=O)[C@@H]2CCCN2C(=O)[C@H](CCc2cc(F)c(C(F)(F)F)c(F)c2)NC(=O)CN(C)C(=O)[C@H](Cc2ccc(C)cc2)N(C)C(=O)[C@@H]2CCN2C(=O)[C@H](C)N(C)C1=O [Compound 1080] ([NMeL]I[NMeA][Aze][NMePhe(4-Me)][Sar][hPhe(3,5-F2-4-CF3)]P[Ac5c][NMeI][NMeD]-NMe2; lactam N-11) | 9.00 | ≥ 7.70
CC[C@H](C)[C@@H]1NC(=O)[C@H](C)N(C)C(=O)C[C@@H](C)NC(=O)[C@H](C2CCCC2)N(C)C(=O)C2(CCCC2)NC(=O)[C@@H]2CCCN2C(=O)[C@H](CCc2ccc(C(F)(F)F)c(Cl)c2)NC(=O)CN(C)C(=O)[C@H](Cc2cccc(C)c2)N(C)C(=O)[C@@H]2CCCN2C(=O)CN(C)C1=O [Compound 1083] (cyclo([Ac5c][NMeGly(cPent)][d(β3hA)][NMeA]I[Sar]P[NMePhe(3-Me)][Sar][hPhe(3-Cl-4-CF3)]P)) | 7.72 | < 6.30
CC[C@H](C)[C@@H]1NC(=O)[C@H](CC(C)C)N(C)C(=O)C[C@@H](C)N(C)C(=O)[C@H](C(C)C)NC(=O)C(C)(C)N(C)C(=O)[C@H](CC(C)C)NC(=O)[C@H](CCc2ccc(C(F)(F)F)c(F)c2)NC(=O)CN(C)C(=O)[C@H](Cc2ccc(Cl)cc2)N(C)C(=O)CN(C)C(=O)CN(C)C1=O [Compound 1084] (cyclo(I[Sar][Sar][NMePhe(4-Cl)][Sar][hPhe(3-F,4-CF3)]L[NMeAib]V[NMedβ3hAla][NMeL])) | 7.28 | < 6.30
CC[C@H](C)[C@@H]1NC(=O)[C@H](CC(C)C)N(C)C(=O)C[C@@H](C(=O)N2CCCCC2)N(C)C(=O)[C@H](C2CCCCC2)N(C)C(=O)C2(CCCC2)NC(=O)[C@H](Cc2cncc(C)c2)N(C)C(=O)[C@H](CCc2ccc(C(F)(F)F)c(Cl)c2)NC(=O)CN(C)C(=O)[C@H](CC2CCCCC2)N(C)C(=O)CN(C)C(=O)CN(C)C1=O [Compound 1087] ([NMeL]I[Sar][Sar][NMeCha][Sar][hPhe(3-Cl-4-CF3)][X20][Ac5c][NMeChg][NMeD]-Piperidide; lactam N-11) | 7.82 | < 6.30
CC[C@H](C)[C@@H]1NC(=O)[C@H](CC(C)C)N(C)C(=O)C[C@@H](C(=O)N2CCCC2)N(C)C(=O)[C@H](C2CCCC2)N(C)C(=O)C2(CCCC2)NC(=O)[C@@H]2CCCN2C(=O)[C@H](CCc2ccc(C(F)(F)F)c(F)c2)NC(=O)CN(C)C(=O)[C@H](CC2CCCCC2)N(C)C(=O)[C@@H]2CCN2C(=O)[C@H](C)N(C)C1=O [Compound 1091] ([NMeL]I[NMeA][Aze][NMeCha][Sar][hPhe(3-F,4-CF3)]P[Ac5c][NMeGly(cPent)][NMeD]-Pyrrolidide; lactam N-11) | 9.00 | ≥ 7.70
CC[C@H](C)[C@@H]1NC(=O)[C@H](CC(C)C)N(C)C(=O)C[C@H]2CCCCN2C(=O)[C@H](CC(C)C)NC(=O)C(C)(C)N(C)C(=O)[C@H](CC(C)C)NC(=O)[C@H](CCc2ccc(C(F)(F)F)c(F)c2)NC(=O)CN(C)C(=O)[C@H](CC2CCCCC2)N(C)C(=O)CN(C)C(=O)CN(C)C1=O [Compound 1095] (cyclo(I[Sar][Sar][NMeCha][Sar][hPhe(3-F,4-CF3)]L[NMeAib]L[dβ3hPip][NMeL])) | 7.34 | < 6.30
CC[C@H](C)[C@@H]1NC(=O)[C@H](C)N(C)C(=O)C[C@@H](C)NC(=O)[C@H](C(C)C)N(C)C(=O)[C@H](Cc2ccccc2)N(C)C(=O)[C@H](CC(C)C)N(C)C(=O)[C@H](CCc2ccc(C(F)(F)F)c(F)c2)NC(=O)CN(C)C(=O)[C@H](Cc2ccc(Cl)cc2)N(C)C(=O)CN(C)C(=O)CN(C)C1=O [Compound 1105] (cyclo(I[Sar][Sar][NMePhe(4-Cl)][Sar][hPhe(3-F,4-CF3)][NMeL][NMeF][NMeV][d(β3hA)][NMeA])) | 7.68 | < 6.30
CCCCC[C@H]1C(=O)N[C@@H]([C@@H](C)CC)C(=O)N[C@@H](C)C(=O)N2CC[C@H]2C(=O)N(C)[C@@H](CC2CCCCC2)C(=O)N(C)CC(=O)N[C@@H](CCc2ccc(C(F)(F)F)c(F)c2)C(=O)N2CCC[C@H]2C(=O)NC2(CCCC2)C(=O)N(C)[C@@H](C2CCCC2)C(=O)N(C)[C@H](C(=O)N(C)C)CC(=O)N1C [Compound 1117] ([NMeAhp(2)]IA[Aze][NMeCha][Sar][hPhe(3-F,4-CF3)]P[Ac5c][NMeGly(cPent)][NMeD]-NMe2; lactam N-11) | 8.66 | ≥ 7.70
